“Also recorded” adds a separate entry of the source. Counter-ions that a name gives are not always drawn.
What was measured:
follicles in telogen [1] = test: Telogen Conversion Assay (TCA), visual melanogenesis grade as indicator of hair growth; format: in vivo, C57Bl/6 mice; conditions: topical; for hair growth induction in vivo (FIG. 1): compound alone; for hair growth induction in vivo (FIG. 1) / Activity (improved hair growth by inducing anagen): 19 days, C57Bl/6 mice; for timing of hair growth induction: C57BL/6 mice, selegiline 1% or Triac 0.06%, 32 days, FIG. 2
Description: The skin color of mice subjected to treatment is graded visually on a scale from zero to four (0=white skin; 1=light gray skin; 2=blue/black spots; 3=large blue/black region; 4=mostly blue/black skin). As a subject transitions from telogen to anagen, the skin color becomes darker.
Triac (0.06%) was administered as a positive control. Animals were scored for hair growth on the basis of melanogenesis during the treatment period.

MAOB = MAOB production in mice administered hair growth modulators; format: in vivo
follicles in telogen [2] = test: Hair growth induction (visual melanogenesis grades) in C3H mice; format: in vivo; conditions: topical, selegiline 1% or Triac 0.06%, 32 days
Description: Several MAO inhibitors were tested for the ability to improve hair growth using the Telogen Conversion Assay (TCA) described in, e.g., International Patent Publication No. 2000/73265. […] The skin color of mice subjected to treatment is graded visually on a scale from zero to four (0=white skin; 1=light gray skin; 2=blue/black spots; 3=large blue/black region; 4=mostly blue/black skin). As a subject transitions from telogen to anagen, the skin color becomes darker.
The potential of selegiline to induce hair growth in different mouse strains also was studied. Selegiline (1%) was topically administered to a C3H mice and C57BL/6 mice. Triac (0.06%) was used as a positive control. […] Both strains of mice also responded to the MAO inhibitor; however, the strains responded in a manner consistent with natural inter-strain differences in transitioning to anagen. The telogen phase in C3H mice is longer than telogen in C57BL/6 mice.

Row | SMILES | hair growth induction in vivo (FIG. 1) (follicles in telogen [1]) | Activity (improved hair growth by inducing anagen) (follicles in telogen [1]; dose 1%) | also measured
1 | C#CCN(C)CCCOc1ccc(Cl)cc1Cl [Clorgiline] | induced significant hair growth | YES | –
2 | C[C@]12CCC(=O)C[C@@H]1CC[C@@H]1[C@@H]2CC[C@]2(C)[C@@H](O)CC[C@@H]12 [DHT, dihydrotestosterone] | – | – | MAOB levels (MAOB; C57Bl/6 mice, 12.5 mg/day subcutaneous continuous release pellet): increased greater than two fold
3 | NCCNC(=O)c1ccc(Cl)cn1 [Lazabemide] | not shown to induce hair growth alone | – | –
4 | C#CCN(C)Cc1ccccc1 [Pargyline HCL] | induced significant hair growth | YES | –
5 | NNCCc1ccccc1 [Phenelzine] | induced significant hair growth | – | Activity (improved hair growth by inducing anagen) (follicles in telogen [1]; dose 0.5%): YES
6 | C#CCN[C@@H]1CCc2ccccc21 [Rasagiline mesylate] | Robust hair growth induction | YES | –
7 | C#CCN(C)[C@H](C)Cc1ccccc1 [Selegiline Hydrochloride] | Robust hair growth induction | YES | timing of hair growth induction (follicles in telogen [1]; Hydrochloride): induced hair regrowth significantly earlier; also recorded: initiated hair growth significantly sooner than treatment with vehicle; timing of hair growth induction (follicles in telogen [2]; FIG. 2, Hydrochloride): induced hair regrowth significantly earlier; also recorded: initiated hair growth significantly sooner than treatment with vehicle
8 | O=C(O)Cc1cc(I)c(Oc2ccc(O)c(I)c2)c(I)c1 [Triac, Triiodothyroacetic Acid] | – | – | MAOB levels (MAOB; C3H mice, 0.06%): Reduced MAOB levels; timing of hair growth induction (follicles in telogen [1]): hair growth was induced at the same time for both mouse strains; also recorded: induced hair growth simultaneously; timing of hair growth induction (follicles in telogen [2]; FIG. 2): hair growth was induced at the same time for both mouse strains; also recorded: induced hair growth simultaneously

From patent publication US20120093752A1, “Use of Monoamine Oxidase Inhibitors to Improve Epithelial Biology” (priority 2010, published 2012)
